According to patent publication US7763728B2, “Tetrahydropyridothiophenes” (4SC AG, priority 2005, dated 2010):

How the values were obtained:
[1] = test system: RKO colon adenocarcinoma cells (RKOp27) arrested by the expression of ectopic p27Kip1; test: Alamar Blue cell viability assay on RKOp27 cells arrested by p27Kip1 expression induced by Ponasterone A; assay type: cell-based; settings: Homo sapiens, 72 hours incubation, 10 μM Ponasterone A, read-out: IC50 RKO p27 induced (arrested)
Procedure: To determine the cell cycle specific mode of action, subclones of RKO colon adenocarcinoma cells (RKOp27 or RKOp21 as described by Schmidt et al. in Oncogene 19, 2423-2429; 2000) are seeded into 96 well flat bottom plates at a density of 15000 cells per well in a volume of 50 μl per well in DMEM growth medium with 10% FCS containing 10 μM Ponasterone A. 24 hours after seeding the 50 μl each of the compound dilutions in DMEM medium are added into each well of the 96 Well plate. Each compound dilution is tested as quadruplicates. Wells containing untreated control cells are filled with 50 μl DMEM medium containing 1% DMSO. The cells are then incubated with the substances for 72 hours at 37° C. in a humidified atmosphere containing 5% carbon dioxide. To determine the viability of the cells, 10 μl of an Alamar Blue solution (Biosource) are added and the fluorescence was measured at an extinction of 544 nm and an emission of 590 nm. For the calculation of the cell viability the emission value from untreated cells is set as 100% viability and the emission rates of treated cells are set in relation to the values of untreated cells. Viabilities are expressed as % values. Viability is compared of proliferating cells grown in the absence of the inducer Ponasterone A, versus viability of cells arrested by the expression of ectopic p27Kip1 induced by Ponasterone A.

[2] = test system: RKO (RKOp27) human colon adenocarcinoma cells; test: Alamar Blue cell viability assay, anti-proliferative/cytotoxic activity on proliferating (uninduced) RKOp27 cells; assay type: cell-based; settings: 72 hours incubation, absence of the inducer Ponasterone A, read-out: IC50 RKO p27 uninduced (proliferating)
Procedure: The anti-proliferative/cytotoxic activity of the compounds described herein, can be tested on subclones of RKO (RKOp27) human colon adenocarcinoma cells (Schmidt et al., Oncogene 19, 2423-2429; 2000) using the Alamar Blue cell viability assay (described in O'Brien et al. Eur J Biochem 267, 5421-5426, 2000). The compounds are dissolved as 20 mM solutions in dimethylsulfoxide (DMSO) and subsequently diluted in semi-logarithmic steps. DMSO dilutions are further diluted 1:100 into Dulbecco's modified Eagle's medium (DMEM) containing 10% fetal calf serum to a final concentration twice as much as the final concentration in the test. RKO subclones are seeded into 96 well flat bottom plates at a density of 5000 cells per well in a volume of 50 μl per well. 24 hours after seeding the 50 μl each of the compound dilutions in DMEM medium are added into each well of the 96 Well plate. Each compound dilution is tested as quadruplicates. Wells containing untreated control cells are filled with 50 μl DMEM medium containing 1% DMSO. The cells are then incubated with the substances for 72 hours at 37° C. in a humified atmosphere containing 5% carbon dioxide. To determine the viability of the cells, 10 μl of an Alamar Blue solution (Biosource) are added and the fluorescence is measured at an extinction of 544 nm and an emission of 590 nm. For the calculation of the cell viability the emission value from untreated cells is set as 100% viability and the emission rates of treated cells are set in relation to the values of untreated cells. Viabilities are expressed as % values.
The corresponding IC50 values of the compounds for anti-proliferative/cytotoxic activity are determined from the concentration-effect curves.
Representative IC50 values for anti-proliferation/cytotoxicity determined in the mentioned assay follow from the following table A, in which the numbers of the compounds correspond to the numbers of the examples.

SMILES	IC50 [1]	IC50 [2]
COc1ccc(C)cc1CCC(=O)Nc1sc2c(c1C#N)CCN(C(=O)CCn1cnc(C)c1)C2 [Example 157, N-{3-Cyano-6-[3-(4-methyl-imidazol-1-yl)-propanoyl]-4,5,6,7-tetrahydro-thieno[2,3-c]pyridin-2-yl}-3-(2-methoxy-5-methyl-phenyl)-propionamide]	≥ 10 µM	0.3 to 2 µM
COc1ccc(C)cc1CCC(=O)Nc1sc2c(c1C#N)CCN(C(=O)Cn1ccnc1)C2 [Example 86, N-[3-Cyano-6-(2-imidazol-1-yl-ethanoyl)-4,5,6,7-tetrahydro-thieno[2,3-c]pyridin-2-yl]-3-(2-methoxy-5-methyl-phenyl)-propionamide]	≥ 40 µM	0.3 to 2 µM
COc1cccc(CCC(=O)Nc2sc3c(c2C#N)CCN(C(=O)CC(C)n2ccnc2)C3)c1 (racemic) [Example 57, N-[3-Cyano-6-((RS)-3-imidazol-1-yl-butanoyl)-4,5,6,7-tetrahydro-thieno[2,3-c]pyridin-2-yl]-3-(3-methoxy-phenyl)-propionamide]	≥ 40 µM	0.3 to 2 µM
CCOc1ccccc1CCC(=O)Nc1sc2c(c1C#N)CCN(C(=O)CCn1ccnc1C)C2 [Example 109, N-{3-Cyano-6-[3-(2-methyl-imidazol-1-yl)-propanoyl]-4,5,6,7-tetrahydro-thieno[2,3-c]pyridin-2-yl}-3-(2-ethoxy-phenyl)-propionamide]	≥ 10 µM	≤ 0.3 µM
COc1ccc(C)cc1CCC(=O)Nc1sc2c(c1C#N)CCN(C(=O)CCc1ccncc1)C2 [Example 124, N-[3-Cyano-6-(3-pyridin-4-yl-propanoyl)-4,5,6,7-tetrahydro-thieno[2,3-c]pyridin-2-yl]-3-(2-methoxy-5-methyl-phenyl)-propionamide]	≥ 10 µM	0.3 to 2 µM
CCOc1ccccc1C(C)CC(=O)Nc1sc2c(c1C#N)CCN(C(=O)Cc1ccccn1)C2 (racemic) [Example 63, (RS)—N-[3-Cyano-6-(2-pyridin-2-yl-ethanoyl)-4,5,6,7-tetrahydro-thieno[2,3-c]pyridin-2-yl]-3-(2-ethoxy-phenyl)-butyramide]	≥ 10 µM	≤ 0.3 µM
CCOc1ccccc1CCC(=O)Nc1sc2c(c1C#N)CCN(C(=O)CCn1cc(C)nc1C)C2 [Example 162, N-{3-Cyano-6-[3-(2,4-dimethyl-imidazol-1-yl)-propanoyl]-4,5,6,7-tetrahydro-thieno[2,3-c]pyridin-2-yl}-3-(2-ethoxy-phenyl)-propionamide]	≥ 10 µM	0.3 to 2 µM
COc1ccccc1CCC(=O)Nc1sc2c(c1C#N)CCN(C(=O)COC(C)=O)C2 [Example 7, Acetic acid 2-{3-cyano-2-[3-(2-methoxy-phenyl)-propanoylamino]-4,7-dihydro-5H-thieno[2,3-c]pyridin-6-yl}-2-oxo-ethyl ester]	> 100 µM	≤ 0.3 µM
COc1ccccc1C(C)CC(=O)Nc1sc2c(c1C#N)CCN(C(=O)CCn1cnc(C)c1)C2 (racemic) [Example 152, (RS)—N-{3-Cyano-6-[3-(4-methyl-imidazol-1-yl)-propanoyl]-4,5,6,7-tetrahydro-thieno[2,3-c]pyridin-2-yl}-3-(2-methoxy-phenyl)-butyramide]	≥ 10 µM	0.3 to 2 µM
COc1cccc(C(C)CC(=O)Nc2sc3c(c2C#N)CCN(C(=O)Cc2cccnc2)C3)c1 (racemic) [Example 64, (RS)—N-[3-Cyano-6-(2-pyridin-3-yl-ethanoyl)-4,5,6,7-tetrahydro-thieno[2,3-c]pyridin-2-yl]-3-(3-methoxy-phenyl)-butyramide]	≥ 40 µM	0.3 to 2 µM
CCOc1ccccc1CCC(=O)Nc1sc2c(c1C#N)CCN(C(=O)CCc1cccnc1)C2 [Example 22, N-[3-Cyano-6-(3-pyridin-3-yl-propanoyl)-4,5,6,7-tetrahydro-thieno[2,3-c]pyridin-2-yl]-3-(2-ethoxy-phenyl)-propionamide]	> 100 µM	≤ 0.3 µM
COCC(=O)N1CCc2c(sc(NC(=O)CCc3cc(C)ccc3OC)c2C#N)C1 [Example 33, N-[3-Cyano-6-(2-methoxy-ethanoyl)-4,5,6,7-tetrahydro-thieno[2,3-c]pyridin-2-yl]-3-(2-methoxy-5-methyl-phenyl)-propionamide]	> 100 µM	0.3 to 2 µM
CCOc1ccccc1CCC(=O)Nc1sc2c(c1C#N)CCN(C(=O)CCn1ccnc1)C2 [Example 102, N-[3-Cyano-6-(3-Imidazol-1-yl-propanoyl)-4,5,6,7-tetrahydro-thieno[2,3-c]pyridin-2-yl]-3-(2-ethoxy-phenyl)-propionamide]	≥ 10 µM	≤ 0.3 µM
COCCC(=O)N1CCc2c(sc(NC(=O)CCc3cc(C)ccc3OC)c2C#N)C1 [Example 32, N-[3-Cyano-6-(3-methoxy-propanoyl)-4,5,6,7-tetrahydro-thieno[2,3-c]pyridin-2-yl]-3-(2-methoxy-5-methyl-phenyl)-propionamide]	> 100 µM	0.3 to 2 µM
CCOc1ccccc1CCC(=O)Nc1sc2c(c1C#N)CCN(C(=O)CCn1cnc(C)c1)C2 [Example 156, N-{3-Cyano-6-[3-(4-methyl-imidazol-1-yl)-propanoyl]-4,5,6,7-tetrahydro-thieno[2,3-c]pyridin-2-yl}-3-(2-ethoxy-phenyl)-propionamide]	≥ 10 µM	≤ 0.3 µM
COc1cccc(CCC(=O)Nc2sc3c(c2C#N)CCN(C(=O)CCc2cccnc2)C3)c1 [Example 14, N-[3-Cyano-6-(3-pyridin-3-yl-propanoyl)-4,5,6,7-tetrahydro-thieno[2,3-c]pyridin-2-yl]-3-(3-methoxy-phenyl)-propionamide]	> 100 µM	0.3 to 2 µM
CCCC(=O)N1CCc2c(sc(NC(=O)CC(C)c3ccccc3OC)c2C#N)C1 (racemic) [Example 89, (RS)—N-(6-Butyryl-3-cyano-4,5,6,7-tetrahydro-thieno[2,3-c]pyridin-2-yl)-3-(2-methoxy-phenyl)-butyramide]	> 100 µM	≤ 0.3 µM
CCOc1ccccc1CCC(=O)Nc1sc2c(c1C#N)CCN(C(=O)Cn1ccnc1C)C2 [Example 131, N-{3-Cyano-6-[2-(2-methyl-imidazol-1-yl)-ethanoyl]-4,5,6,7-tetrahydro-thieno[2,3-c]pyridin-2-yl}-3-(2-ethoxy-phenyl)-propionamide]	≥ 40 µM	≤ 0.3 µM
CCOc1cccc(C(C)CC(=O)Nc2sc3c(c2C#N)CCN(C(=O)Cc2ccccn2)C3)c1 (racemic) [Example 61, (RS)—N-[3-Cyano-6-(2-pyridin-2-yl-ethanoyl)-4,5,6,7-tetrahydro-thieno[2,3-c]pyridin-2-yl]-3-(3-ethoxy-phenyl)-butyramide]	> 100 µM	0.3 to 2 µM
COc1ccccc1CCC(=O)Nc1sc2c(c1C#N)CCN(C(=O)CC(C)n1ccnc1)C2 (racemic) [Example 56, N-[3-Cyano-6-((RS)-3-imidazol-1-yl-butanoyl)-4,5,6,7-tetrahydro-thieno[2,3-c]pyridin-2-yl]-3-(2-methoxy-phenyl)-propionamide]	≥ 40 µM	0.3 to 2 µM
COc1ccc(C)cc1CCC(=O)Nc1sc2c(c1C#N)CCN(C(=O)CCc1ccncn1)C2 [Example 38, N-[3-Cyano-6-(3-pyrimidin-4-yl-propanoyl)-4,5,6,7-tetrahydro-thieno[2,3-c]pyridin-2-yl]-3-(2-methoxy-5-methyl-phenyl)-propionamide]	> 100 µM	0.3 to 2 µM
COc1cccc(CCC(=O)Nc2sc3c(c2C#N)CCN(C(=O)CCc2ccncc2)C3)c1 [Example 15, N-[3-Cyano-6-(3-pyridin-4-yl-propanoyl)-4,5,6,7-tetrahydro-thieno[2,3-c]pyridin-2-yl]-3-(3-methoxy-phenyl)-propionamide]	> 100 µM	0.3 to 2 µM
COCCOCC(=O)N1CCc2c(sc(NC(=O)CCc3cccc(OC)c3)c2C#N)C1 [Example 30, N-{3-Cyano-6-[2-(2-methoxy-ethoxy)-ethanoyl]-4,5,6,7-tetrahydro-thieno[2,3-c]pyridin-2-yl}-3-(3-methoxy-phenyl)-propionamide]	> 100 µM	0.3 to 2 µM
